Laboratory results reported in patent publication US12202844B2, “MAP4K1 inhibitors” (Blueprint Medicines Corporation, priority 2021, dated 2025).

Molecular target: T1, MAP4K1 (HPK1) (Homo sapiens, UniProt Q92918)
T1 construct: purchased Invitrogen
Test: Inhibition of MAP4K1 biochemical enzymatic activity (EZReader 2 electrophoretic mobility shift)
Conditions: HPK1 (Invitrogen), S6K2tide 1.5 μM, 120 min; ATP 26 μM or 1000 μM (not given)
From the text: MAP4K1 (HPK1) and relevant off-target enzymatic activity was monitored using the Perkin Elmer electrophoretic mobility shift technology platform—the EZReader 2. […] Within the linear, steady-state phase of the kinase enzymatic reaction, the mixed pool of phosphorylated (product) and non-phosphorylated (substrate) peptides was passed through the microfluidic system of the PerkinElmer EZ Reader 2, under an applied electric potential difference. The presence of the phosphate group on the product peptide provided a difference in mass and charge between that of the substrate peptide, resulting in a separation of the substrate and product pools in the sample (Perrin et al. 2010). As the product and substrate peptide mixture passes the lasers within the instrument, these pools are detected (λex=488 nm, λem=568 nm) and resolved as separate peaks. The ratio between these peaks reflects the activity of the compound at that concentration, in that well, under those conditions.
Inhibitors were dissolved in 100% DMSO at a stock concentration of 10 mM. A 100×, 10-point, 4-fold serial dilution of each inhibitor was created in 100% DMSO either manually or on a Hamilton STAR liquid handler, starting at a relevant concentration, usually 1 mM. A volume of 0.130 μL of each concentration was transferred to the relevant wells of a 384-well plate (Greiner 781 201) in duplicate using a TTPLabtech Mosquito nano-litre dispenser. Using a Multidrop Combi, the remaining constituents of the kinase reaction were added to the 130 nL of dosed compound as follows (see table below for final reaction details):
Enzyme activity assays at the ^APPKM for ATP or 1 mM ATP: In each well of a 384-well plate, 0.1-15 nM of untreated enzyme was incubated in a total of 13 μL of buffer (100 mM HEPES pH 7.5, 0.015% Brij 35, 10 mM MgCl2, 1 mM DTT) with 1.5 μM fluorescent peptid and 20-1000 μM ATP, at 25° C., for 60-180 minutes in the presence or absence of a dosed concentration series of compound (1% DMSO final concentration). The kinase reactions were stopped by the addition of 70 μl of Stop buffer (100 mM HEPES pH 7.5, 0.015% Brij 35, 35 mM EDTA and 0.2% of Coating Reagent 3 (Caliper Lifesciences)). The plates were read on a Caliper EZReader 2 as described above.

T1 sequence (Q92918 whole entry): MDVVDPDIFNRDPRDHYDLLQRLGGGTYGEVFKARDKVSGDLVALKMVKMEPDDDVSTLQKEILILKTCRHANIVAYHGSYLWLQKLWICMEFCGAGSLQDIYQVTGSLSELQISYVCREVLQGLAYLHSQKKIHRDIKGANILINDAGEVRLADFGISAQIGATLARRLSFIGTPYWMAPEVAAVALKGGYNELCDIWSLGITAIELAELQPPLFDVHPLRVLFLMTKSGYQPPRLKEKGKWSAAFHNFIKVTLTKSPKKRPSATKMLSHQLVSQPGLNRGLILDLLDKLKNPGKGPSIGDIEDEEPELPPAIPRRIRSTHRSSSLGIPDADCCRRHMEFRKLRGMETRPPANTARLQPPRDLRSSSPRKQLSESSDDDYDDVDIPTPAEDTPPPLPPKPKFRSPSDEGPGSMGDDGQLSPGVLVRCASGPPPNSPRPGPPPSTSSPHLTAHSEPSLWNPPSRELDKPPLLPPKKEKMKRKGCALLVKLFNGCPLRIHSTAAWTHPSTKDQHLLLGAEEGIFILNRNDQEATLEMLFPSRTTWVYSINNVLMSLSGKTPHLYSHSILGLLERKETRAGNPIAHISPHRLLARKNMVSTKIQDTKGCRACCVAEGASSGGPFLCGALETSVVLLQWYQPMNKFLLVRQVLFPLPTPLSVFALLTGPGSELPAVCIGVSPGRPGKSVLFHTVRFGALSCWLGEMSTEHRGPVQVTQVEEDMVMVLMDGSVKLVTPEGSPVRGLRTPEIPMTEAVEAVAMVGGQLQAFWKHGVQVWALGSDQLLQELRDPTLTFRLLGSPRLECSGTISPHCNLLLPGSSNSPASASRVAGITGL

Row | Structure (SMILES) | IC50
1 | COC[C@@](C)(N)c1cnc(OCCCS(C)(=O)=O)c2cnc(Nc3ccc4c(n3)[C@@H](C)C(C)(C)OC4=O)cc12 [Compound 135] | 0.45 nM
2 | C[C@H]1[C@H](Oc2ncc(C(C)(C)N)c3cc(Nc4ccc5c(n4)[C@@H](C)C(C)(C)OC5=O)ncc23)C[C@@H]1S(C)(=O)=O (single isomer, unassigned) [Compound 68] | 0.51 nM
3 | CCS(=O)(=O)[C@H]1C[C@@H](Oc2ncc([C@H](N)C3CC3)c3cc(Nc4ccc5c(n4)[C@@H](C)C(C)(C)OC5=O)ncc23)C1 (single isomer, unassigned) [Compound 101] | 0.48 nM
4 | C[C@@H]1[C@H](S(C)(=O)=O)C[C@H]1Oc1ncc(C(C)(C)N)c2cc(Nc3ccc4c(n3)[C@@H](C)C(C)(C)OC4=O)ncc12 (single isomer, unassigned) [Compound 70] | 0.23 nM
5 | CCC[C@@](C)(N)c1cnc(O[C@H](C)C[C@@H](C)S(C)(=O)=O)c2cnc(Nc3ccc4c(n3)[C@@H](C)[C@H](C)OC4=O)cc12 (single isomer, unassigned) [Compound 125] | 0.18 nM
6 | COC[C@@](C)(N)c1cnc(OCCCS(C)(=O)=O)c2cnc(Nc3ccc4c(n3)[C@@H](C)C(C)(C)OC4=O)cc12 (stereo in doubt) [Compound 179] | 0.49 nM
7 | C[C@@H]1OC(=O)c2ccc(Nc3cc4c(C(C)(C)N)cnc(O[C@@H](C)C[C@@H]5CCCS5(=O)=O)c4cn3)nc2[C@H]1C (single isomer, unassigned) [Compound 157] | 1.57 nM
8 | CCS(=O)(=O)[C@H](C)C[C@@H](C)Oc1ncc(C(C)(C)N)c2cc(Nc3ccc4c(n3)[C@@H](C)[C@H](C)OC4=O)ncc12 [Compound 89] | 0.24 nM
9 | CC[C@@](C)(N)c1cnc(O[C@H]2C[C@@H](S(C)(=O)=O)C2)c2cnc(Nc3ccc4c(n3)[C@@H](C)[C@@H](C)OC4=O)cc12 (single isomer, unassigned) [Compound 149] | 0.25 nM
10 | CC[C@@](C)(N)c1cnc(O[C@@H](C)CC(C)(C)S(C)(=O)=O)c2cnc(Nc3ccc4c(n3)C(C)(C)[C@H](C)OC4=O)cc12 (single isomer, unassigned) [Compound 191] | 3.67 nM
11 | C[C@@H]1c2nc(Nc3cc4c(C(C)(C)N)cnc(OC[C@H]5CCS(=O)(=O)C5)c4cn3)ccc2C(=O)OC1(C)C (single isomer, unassigned) [Compound 36] | 0.54 nM
12 | CC[C@@](C)(N)c1cnc(O[C@H](C)CCS(C)(=O)=O)c2cnc(Nc3ccc4c(n3)C(C)(C)[C@@H](C)OC4=O)cc12 [Compound 178] | 0.55 nM
13 | CC[C@@](C)(N)c1cnc(O[C@H](C)CCS(C)(=O)=O)c2cnc(Nc3ccc4c(n3)C(C)(C)COC4=O)cc12 [Compound 50] | 0.56 nM
14 | C[C@H](C[C@@H](C)S(C)(=O)=O)Oc1ncc(C(C)(C)N)c2cc(Nc3ccc4c(n3)C3(CC3)C(C)(C)OC4=O)ncc12 [Compound 103] | 0.55 nM
15 | CC[C@@](C)(N)c1cnc(OCCCS(C)(=O)=O)c2cnc(Nc3ccc4c(n3)[C@H](C)[C@H](C)OC4=O)cc12 (single isomer, unassigned) [Compound 21] | 0.18 nM
16 | CC[C@@H](CCS(C)(=O)=O)Oc1ncc([C@](C)(N)CC)c2cc(Nc3ccc4c(n3)[C@@H](C)[C@H](C)OC4=O)ncc12 (single isomer, unassigned) [Compound 83] | 0.92 nM
17 | C[C@@H]1OC(=O)c2ccc(Nc3cc4c(C(C)(C)N)cnc(O[C@@H]5CC[C@@H](S(C)(=O)=O)C5)c4cn3)nc2[C@H]1C (single isomer, unassigned) [Compound 34] | 0.56 nM
18 | C[C@@H]1COC(=O)c2ccc(Nc3cc4c(C(C)(C)N)cnc(O[C@H]5C[C@@H](S(C)(=O)=O)C5)c4cn3)nc21 (single isomer, unassigned) [Compound 5] | 1.77 nM
19 | C[C@@H]1OC(=O)c2ccc(Nc3cc4c(C(C)(C)N)cnc(O[C@@H](C)CCS(C)(=O)=O)c4cn3)nc2[C@H]1C (single isomer, unassigned) [Compound 19] | 0.9 nM
20 | C[C@@H]1c2nc(Nc3cc4c(C(C)(C)N)cnc(OC[C@H]5CCS(=O)(=O)C5)c4cn3)ccc2C(=O)OC1(C)C (single isomer, unassigned) [Compound 37] | 0.44 nM
21 | CC[C@@](C)(N)c1cnc(O[C@@H](C)CCS(C)(=O)=O)c2cnc(Nc3ccc4c(n3)C(C)(C)[C@H](C)OC4=O)cc12 (single isomer, unassigned) [Compound 97] | 2.11 nM

Row | Structure (SMILES) | IC50
22 | CC[C@@](C)(N)c1cnc(O[C@@H](C)CCS(C)(=O)=O)c2cnc(Nc3ccc4c(n3)C3(CC3)[C@@H](C)OC4=O)cc12 (single isomer, unassigned) [Compound 147] | 0.46 nM
23 | CC[C@@](C)(N)c1cnc(O[C@@H](C)CC(C)(C)S(C)(=O)=O)c2cnc(Nc3ccc4c(n3)[C@@H](C)[C@H](C)OC4=O)cc12 (single isomer, unassigned) [Compound 185] | 0.22 nM
24 | C[C@@H]1c2nc(Nc3cc4c(C(C)(C)N)cnc(OCC5CS(=O)(=O)C5)c4cn3)ccc2C(=O)OC1(C)C [Compound 12] | 0.56 nM
25 | CC[C@@H](CCS(C)(=O)=O)Oc1ncc([C@](C)(N)CC)c2cc(Nc3ccc4c(n3)[C@@H](C)[C@H](C)OC4=O)ncc12 (single isomer, unassigned) [Compound 84] | 0.74 nM
26 | CC(C)S(=O)(=O)[C@H]1C[C@@H](Oc2ncc(C(C)(C)N)c3cc(Nc4ccc5c(n4)[C@@H](C)C(C)(C)OC5=O)ncc23)C1 [Compound 116] | 0.09 nM
27 | C[C@H](CCS(C)(=O)=O)Oc1ccc(C(C)(C)N)c2cc(Nc3ccc4c(n3)[C@@H](C)C(C)(C)OC4=O)ncc12 (single isomer, unassigned) [Compound 46] | 0.71 nM
28 | C[C@H](C[C@H]1CCCS1(=O)=O)Oc1ncc(C(C)(C)N)c2cc(Nc3ccc4c(n3)[C@@H](C)C(C)(C)OC4=O)ncc12 (single isomer, unassigned) [Compound 159] | 0.42 nM
29 | CC[C@@](C)(N)c1cnc(O[C@H](C)CCS(C)(=O)=O)c2cnc(Nc3ccc4c(n3)C(C)(C)[C@H](C)OC4=O)cc12 (single isomer, unassigned) [Compound 96] | 0.77 nM
30 | COC[C@@](C)(N)c1cnc(O[C@H]2C[C@H](CS(C)(=O)=O)C2)c2cnc(Nc3ccc4c(n3)[C@@H](C)[C@H](C)OC4=O)cc12 [Compound 120] | 0.52 nM
31 | C[C@H](CCS(C)(=O)=O)Oc1ccc(C(C)(C)N)c2cc(Nc3ccc4c(n3)[C@@H](C)C(C)(C)OC4=O)ncc12 (single isomer, unassigned) [Compound 45] | 0.2 nM
32 | C[C@@H]1COC(=O)c2ccc(Nc3cc4c(C(C)(C)N)cnc(O[C@H]5C[C@@H](S(=O)(=O)C6CC6)C5)c4cn3)nc21 (single isomer, unassigned) [Compound 25] | 1.53 nM
33 | C[C@@H]1c2nc(Nc3cc4c(C(C)(C)N)cnc(OCCCS(C)(=O)=O)c4cn3)ccc2C(=O)OC1(C)C [Compound 17] | 0.15 nM
34 | CC[C@@](C)(N)c1cnc(O[C@H](C)CC[S@+](C)[O-])c2cnc(Nc3ccc4c(n3)[C@@H](C)[C@H](C)OC4=O)cc12 (single isomer, unassigned) [Compound 167] | 0.19 nM
35 | C[C@@H]1c2nc(Nc3cc4c(C(C)(C)N)cnc(OC5(C)CS(=O)(=O)C5)c4cn3)ccc2C(=O)OC1(C)C [Compound 10] | 0.12 nM
36 | CC[C@@](C)(N)c1cnc(O[C@H]2C[C@@H](S(C)(=O)=O)C2)c2cnc(Nc3ccc4c(n3)CC(C)(C)OC4=O)cc12 [Compound 32] | 0.18 nM
37 | CC[C@@](C)(N)c1cnc(O[C@H](C)CC(C)(C)[S@@](C)(=N)=O)c2cnc(Nc3ccc4c(n3)C(C)(C)[C@@H](C)OC4=O)cc12 (single isomer, unassigned) [Compound 189] | 1.05 nM
38 | COC[C@@](C)(N)c1cnc(O[C@H]2C[C@@H](CS(C)(=O)=O)C2)c2cnc(Nc3ccc4c(n3)[C@@H](C)[C@H](C)OC4=O)cc12 [Compound 121] | 0.59 nM
39 | C[C@@H]1OC(=O)c2ccc(Nc3cc4c(C(C)(C)N)cnc(O[C@@H]5CC[C@H](S(C)(=O)=O)C5)c4cn3)nc2[C@H]1C (single isomer, unassigned) [Compound 41] | 0.68 nM
40 | CC[C@@](C)(N)c1cnc(O[C@H]2C[C@@H](S(C)(=O)=O)C2)c2cnc(Nc3ccc4c(n3)[C@H](C)COC4=O)cc12 (single isomer, unassigned) [Compound 8] | 0.31 nM
41 | C[C@@H]1OC(=O)c2ccc(Nc3cc4c(C(C)(C)N)cnc(O[C@H]5C[C@H](S(=O)(=O)N(C)C)C5)c4cn3)nc2[C@H]1C [Compound 82] | 0.35 nM
42 | CC[C@@](C)(N)c1cnc(O[C@H]2C[C@@H](S(C)(=O)=O)C2)c2cnc(Nc3ccc4c(n3)C(C)(C)COC4=O)cc12 [Compound 33] | 0.21 nM
